Among the data in ChEMBL document CHEMBL5154648, “Antitumor activity of novel POLA1-HDAC11 dual inhibitors” (Eur J Med Chem, 2022) are inhibition, Activity and inhibition in vivo values, retold here.

Calls of active or inactive are those of the source. No cut-off for these calls is given here.

Data set [1] deals with T1, Histone deacetylase 11 (Homo sapiens) (UniProt Q96DB2).
T1 sequence (whole entry): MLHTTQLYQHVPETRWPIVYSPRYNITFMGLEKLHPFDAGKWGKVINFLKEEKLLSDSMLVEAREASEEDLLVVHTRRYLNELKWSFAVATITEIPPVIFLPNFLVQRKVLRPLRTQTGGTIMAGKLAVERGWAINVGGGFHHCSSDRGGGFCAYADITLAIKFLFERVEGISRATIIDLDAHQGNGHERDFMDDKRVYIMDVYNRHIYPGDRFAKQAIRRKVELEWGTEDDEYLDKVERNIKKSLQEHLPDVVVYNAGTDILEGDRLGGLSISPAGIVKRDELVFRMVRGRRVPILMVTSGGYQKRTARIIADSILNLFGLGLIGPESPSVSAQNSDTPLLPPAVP
Description: Inhibition of HDAC11 in human A2780 cells at 0.1 to 0.4 uM assessed as increase in p21 level and measured by Western blot analysis. Format: cell-based. The conditions noted are these: dose 0.1-0.4 µM. (In general: In western blotting, separated proteins are transferred to a membrane and probed.)

Data set [2] deals with A2780. In words: Induction of DNA damage in human A2780 cells at 0.1 to 0.4 uM assessed as increase in p-H2AX levels and measured by Western blot analysis. Format: functional, cell-based. To be noted: dose 0.1-0.4 µM.
The subject of data set [3] is NCI-H460. Description: Induction of cell cycle arrest in human NCI-H460 cells assessed as accumulation of cells at G0/1 phase at 0.26 uM after 72 hrs by flow cytometry (reference value: 46.8%). Format: functional. (In general: Flow cytometry measures light scatter and fluorescence of single cells or particles in a stream.)
Data set [4] relates to A2780. In words: Induction of cell cycle arrest in human A2780 cells assessed as accumulation of cells at sub-G1 phase at 0.95 uM after 72 hrs by flow cytometry (reference value: 1.6%). Format: functional.
Data set [5] has as its system A2780. Description: Induction of cell cycle arrest in human A2780 cells assessed as accumulation of cells at G2/M phase at 0.95 uM after 72 hrs by flow cytometry (reference value: 15%). Format: functional.
In data set [6] the test system is MM473. In words: Induction of cell cycle arrest in human MM473-Luc cells assessed as accumulation of cells at sub-G1 phase at 1.4 uM after 72 hrs by flow cytometry (reference value: 1.3%). Format: functional.
For data set [7], the system named is MM473. In words: Induction of cell cycle arrest in human MM473-Luc cells assessed as accumulation of cells at G2/M phase at 1.4 uM after 72 hrs by flow cytometry (reference value: 11.7%). Format: functional.
The subject of data set [8] is NCI-H460. In words: Down-regulation of POLA1 mRNA expression in human NCI-H460 cells at 0.26 uM measured by qRT-PCR assay. Format: functional, cell-based.
In data set [9] the target is T1, Histone deacetylase 11 (Homo sapiens). Description: Inhibition of HDAC11 in human MM487 cells at 0.1 to 0.4 uM assessed as increase in p21 level and measured by Western blot analysis. Format: cell-based. The conditions noted are these: dose 0.1-0.4 µM.
Data set [10] concerns MM487. In words: Induction of DNA damage in human MM487 cells at 0.1 to 0.4 uM assessed as increase in p-H2AX levels and measured by Western blot analysis. Format: functional, cell-based. To be noted: dose 0.1-0.4 µM.
The subject of data set [11] is A2780. In words: Induction of cell cycle arrest in human A2780 cells assessed as accumulation of cells at sub-G1 phase at 0.6 uM after 72 hrs by flow cytometry (reference value: 1.6%). Format: functional.
In data set [12] the test system is A2780. Description: Induction of cell cycle arrest in human A2780 cells assessed as accumulation of cells at G0/1 phase at 0.6 uM after 72 hrs by flow cytometry (reference value: 48.7%). Format: functional.
The subject of data set [13] is A2780. Description: Induction of cell cycle arrest in human A2780 cells assessed as accumulation of cells at G2/M phase at 0.6 uM after 72 hrs by flow cytometry (reference value: 15%). Format: functional.
The test system of data set [14] is MM473. Description: Induction of cell cycle arrest in human MM473-Luc cells assessed as accumulation of cells at sub-G1 phase at 1.2 uM after 72 hrs by flow cytometry (reference value: 1.3%). Format: functional.
Data set [15] relates to MM473. In words: Induction of cell cycle arrest in human MM473-Luc cells assessed as accumulation of cells at G2/M phase at 1.2 uM after 72 hrs by flow cytometry (reference value: 11.7%). Format: functional.
Data set [16] in a line: Induction of cell cycle arrest in human H460-R9A cells assessed as accumulation of cells at G0/1 phase at 2.8 uM after 72 hrs by flow cytometry (reference value: 50.1%). Format: functional.
Data set [17] is described as follows: Induction of cell cycle arrest in human H460-R9A cells assessed as accumulation of cells at S phase at 2.8 uM after 72 hrs by flow cytometry (reference value: 34.5%). Format: functional.
A short description of data set [18]: Induction of cell cycle arrest in human H460-R9A cells assessed as accumulation of cells at G2/M phase at 2.8 uM after 72 hrs by flow cytometry (reference value: 15.4%). Format: functional.
The subject of data set [19] is NCI-H460. Description: Down-regulation of POLA1 protein expression in human NCI-H460 cells at 0.25 uM measured by Western blot analysis. Format: functional, cell-based.
A short description of data set [20]: Toxicity in mouse xenografted with human NCI-H460 cells assessed as body weight loss at 50 mg/kg, po qd administered 5 times a week for 3 to 4 weeks. Format: organism-based. The conditions noted are these: in vivo, time 3-4 weeks. Background: A xenograft is tissue or cells of one species grown in another, often human tumour cells in immunodeficient mice.
The test system of data set [21] is NCI-H460. Description: Antitumor activity against human NCI-H460 cells xenografted in mouse assessed as tumor growth inhibition at 50 mg/kg, po qd administered 5 times a week for 3 to 4 weeks. Format: functional. To be noted: time 3-4 weeks, read-out: TGI.
Data set [22] is described as follows: Toxicity in mouse xenografted with human H460-R9A cells assessed as body weight loss at 50 mg/kg, po qd administered 5 times a week for 3 to 4 weeks. The conditions noted are these: in vivo, time 3-4 weeks. Format: organism-based.
A short description of data set [23]: Toxicity in mouse xenografted with human H460-R9A cells assessed as body weight loss at 50 mg/kg, po qd administered 5 times a week for 3 to 4 weeks in combination with cisplatin at 4 mg/kg, iv administered every 7 days for 4 weeks. The conditions noted are these: in vivo, time 3-4 weeks. Format: organism-based.
Data set [24] deals with NCI-H460. Description: Induction of cell cycle arrest in human NCI-H460 cells assessed as accumulation of cells at sub-G1 phase at 0.12 uM after 72 hrs by flow cytometry (reference value: 1.1%). Format: functional.
In data set [25] the test system is NCI-H460. Description: Induction of cell cycle arrest in human NCI-H460 cells assessed as accumulation of cells at G2/M phase at 0.12 uM after 72 hrs by flow cytometry (reference value: 21.1%). Format: functional.
The nature of data set [26]: Induction of cell cycle arrest in human H460-R9A cells assessed as accumulation of cells at G0/1 phase at 2.2 uM after 72 hrs by flow cytometry (reference value: 50.1%). Format: functional.
Data set [27] can be described thus: Induction of cell cycle arrest in human H460-R9A cells assessed as accumulation of cells at G2/M phase at 2.2 uM after 72 hrs by flow cytometry (reference value: 15.4%). Format: functional.
Data set [28] in a line: Toxicity in mouse xenografted with human NCI-H460 cells assessed as body weight loss at 20 mg/kg, po qd administered 5 times a week for 3 to 4 weeks. To be noted: in vivo, time 3-4 weeks. Format: organism-based.
Data set [29] concerns NCI-H460. In words: Antitumor activity against human NCI-H460 cells xenografted in mouse assessed as tumor growth inhibition at 20 mg/kg, po qd administered […] for 3 to 4 weeks. Format: functional. To be noted: time 3-4 weeks, read-out: TGI.
A short description of data set [30]: Toxicity in mouse xenografted with human H460-R9A cells assessed as body weight loss at 20 mg/kg, po qd administered 5 times a week for 3 to 4 weeks. Format: organism-based. To be noted: in vivo, time 3-4 weeks.
Data set [31] in a line: Antitumor activity against human H460-R9A cells xenografted in mouse assessed as tumor growth inhibition at 20 mg/kg, po qd administered […] for 3 to 4 weeks. Format: functional. The conditions noted are these: time 3-4 weeks, read-out: TGI.

Take `CC(Oc1ccc(-c2ccc(C=CC(=O)O)cc2)cc1C12CC3CC(CC(C3)C1)C2)C(=O)NO` (stereo unspecified): the inhibition result in data set [1] is “Active”. The result in data set [2] and in data set [8] was Active. The Activity turned out to be 10.9% in data set [3]; 23% in data set [4]; 3% in data set [5]; 10.2% in data set [6]; 16.1% in [7].
On to `O=C(O)C=Cc1ccc(-c2ccc(OCC(=O)NO)c(C34CC5CC(CC(C5)C3)C4)c2)cc1`, for which the inhibition result in [9] is “Active”. The outcome in [10] and in data set [19] was Active. Further, the Activity turned out to be 33.3% in data set [11]; 14.6% in data set [12]; 6.5% in data set [13]; 39.7% in data set [14]; 14.1% in [15]; 49.7% in [16]. For the same molecule, the Activity in data set [17] came out at 37.4%; in [18], 12.9%; in data set [20], 0%; in [22], 0%; in [23] it was 0%. In addition, the inhibition in vivo at 50 mg/kg in [21] worked out at 61%.
As to `O=C(O)C=Cc1ccc(-c2ccc(O)c(C34CC5CC(CC(C5)C3)C4)c2)cc1`, the Activity in data set [24] was found to be 12.4%; in [25], 6.5%; in data set [26], 22.8%; in data set [27] it was 13.8%; in data set [28], 0%; in [30], 0%. The figures for the inhibition in vivo at 20 mg/kg in data set [29] and in [31] were 64% and 0%, respectively.
